Experimental findings from patent publication US20200291018A1, “TAM KINASE INHIBITORS” (SYROS PHARMACEUTICALS, INC., priority 2017, published 2020) are described below.

Bounds are passed on as bounds.

One assay deals with T1, AXL (Homo sapiens, UniProt P30530).
T1 sequence (P30530 26-894): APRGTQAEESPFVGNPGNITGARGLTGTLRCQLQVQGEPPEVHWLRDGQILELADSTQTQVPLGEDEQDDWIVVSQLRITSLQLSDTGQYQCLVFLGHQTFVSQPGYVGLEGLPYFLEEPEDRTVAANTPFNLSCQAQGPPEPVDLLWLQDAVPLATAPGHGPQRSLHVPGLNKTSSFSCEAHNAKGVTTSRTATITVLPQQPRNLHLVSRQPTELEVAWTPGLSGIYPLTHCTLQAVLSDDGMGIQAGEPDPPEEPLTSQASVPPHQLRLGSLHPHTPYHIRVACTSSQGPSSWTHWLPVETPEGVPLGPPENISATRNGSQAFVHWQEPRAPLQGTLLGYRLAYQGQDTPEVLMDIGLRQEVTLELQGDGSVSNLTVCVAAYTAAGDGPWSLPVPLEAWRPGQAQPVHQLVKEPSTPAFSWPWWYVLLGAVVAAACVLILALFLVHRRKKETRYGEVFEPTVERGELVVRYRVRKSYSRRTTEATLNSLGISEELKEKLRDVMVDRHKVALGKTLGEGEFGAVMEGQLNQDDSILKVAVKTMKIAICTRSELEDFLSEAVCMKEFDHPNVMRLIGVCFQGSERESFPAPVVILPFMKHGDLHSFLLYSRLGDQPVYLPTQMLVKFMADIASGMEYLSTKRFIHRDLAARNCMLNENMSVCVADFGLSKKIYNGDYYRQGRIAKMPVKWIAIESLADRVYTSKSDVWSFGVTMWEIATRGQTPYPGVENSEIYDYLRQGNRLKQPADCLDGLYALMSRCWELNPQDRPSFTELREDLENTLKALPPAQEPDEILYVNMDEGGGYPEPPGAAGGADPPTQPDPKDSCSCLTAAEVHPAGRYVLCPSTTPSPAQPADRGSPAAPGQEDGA
In words: TR-FRET kinase activity assay, AXL. Type of assay: biochemical. The note with it: ATP at Km, 60 minutes. An outline of the steps:
(§1)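 Enzyme, fluorescent-labeled peptide substrate and compound were mixed in 50 mM HEPES pH 7.5, 10 mM MgCl2, 1 mM EGTA, 0.01% Brij 35, 1 mM DTT at RT; ATP at each enzyme's Km started the reaction. After 60 min, EDTA quench and Eu-anti-phosphotyrosine-site antibody (30 min, dark); TR-FRET read, IC50 derived.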
(In general: In TR-FRET formats the signal depends on donor and acceptor labels being close together.)

The next assay deals with T2, TYRO3 (Homo sapiens, UniProt Q06418).
T2 sequence (Q06418 41-890): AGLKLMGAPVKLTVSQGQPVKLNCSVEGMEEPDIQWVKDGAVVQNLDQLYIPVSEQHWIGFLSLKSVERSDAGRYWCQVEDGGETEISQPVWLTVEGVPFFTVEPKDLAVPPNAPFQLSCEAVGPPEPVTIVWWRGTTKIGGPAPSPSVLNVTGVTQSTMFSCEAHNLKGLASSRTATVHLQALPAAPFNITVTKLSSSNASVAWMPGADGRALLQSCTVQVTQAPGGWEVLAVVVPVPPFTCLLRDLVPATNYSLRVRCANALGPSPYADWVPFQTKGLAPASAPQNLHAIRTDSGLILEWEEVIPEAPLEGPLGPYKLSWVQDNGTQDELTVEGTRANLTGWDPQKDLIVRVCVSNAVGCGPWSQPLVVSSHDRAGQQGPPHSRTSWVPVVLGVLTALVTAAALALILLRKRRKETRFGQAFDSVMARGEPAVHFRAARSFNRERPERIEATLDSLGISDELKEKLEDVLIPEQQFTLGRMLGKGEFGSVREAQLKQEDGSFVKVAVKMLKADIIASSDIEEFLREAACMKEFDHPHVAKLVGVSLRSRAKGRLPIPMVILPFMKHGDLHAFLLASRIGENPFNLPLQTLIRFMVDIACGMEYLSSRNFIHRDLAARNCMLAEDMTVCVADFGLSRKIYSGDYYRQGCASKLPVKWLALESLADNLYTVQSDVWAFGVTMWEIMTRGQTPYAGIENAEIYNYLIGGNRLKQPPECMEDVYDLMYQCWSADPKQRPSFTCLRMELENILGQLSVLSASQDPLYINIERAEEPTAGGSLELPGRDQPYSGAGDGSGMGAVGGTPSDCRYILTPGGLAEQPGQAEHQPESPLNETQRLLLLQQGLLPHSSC
In words: TR-FRET kinase activity assay, TYRO3. It counts as biochemical. The note with it: ATP at Km, 60 minutes. In a few lines: as §1

Turning to `COC[C@@H](C)Nc1ncc2c(OC3CC(O)C3)ncc([C@H]3CC[C@H](O)CC3)c2n1` (some centres unmarked) [Compound 351], the IC50 (in general, the concentration needed to halve the response being measured) was 1000 to 10000 nM on AXL and at most 100 nM against TYRO3.

For `C[C@@H](CC(F)(F)F)Nc1ncc2c(OC3CCN(C)CC3)ncc([C@H]3CC[C@H](O)CC3)c2n1` [Compound 352], the values for the IC50 against AXL and against TYRO3 were 100 to 1000 nM and at most 100 nM, respectively.

`O=C(O)[C@H]1CC[C@@H](Nc2ncc3c(OC4CCOCC4)ncc([C@H]4CC[C@H](O)CC4)c3n2)CC1` [Compound 353]: the IC50 on AXL and against TYRO3 was 1000 to 10000 nM each time.

`COC[C@H](C)Nc1ncc2c(O[C@@H]3CCOC3)ncc([C@H]3CC[C@H](O)CC3)c2n1` [Compound 354]: the 50% inhibitory concentration (IC50) fell in the range of 1000 to 10000 nM at AXL and 100 to 1000 nM against TYRO3.
